Source: patent publication US20210395239A1 (Hoffmann-La Roche Inc., priority 2018, published 2021)

Legend:
[1] = target: T1, hERG channel (Homo sapiens, UniProt Q12809); assay: hERG channel inhibition assay (patch-clamp, CHOhERG cells); assay type: cell-based; conditions: for safety window (hERG IC20/TLR7/8/9 IC50) compared to the compounds of this invention: result in words; for hERG IC20/TLR7 IC50 / hERG IC20/TLR9 IC50: safety ratio
T1 construct: expressed in transfected cells; host or cells: CHO (Chinese hamster ovary)
T1 sequence (Q12809 whole entry): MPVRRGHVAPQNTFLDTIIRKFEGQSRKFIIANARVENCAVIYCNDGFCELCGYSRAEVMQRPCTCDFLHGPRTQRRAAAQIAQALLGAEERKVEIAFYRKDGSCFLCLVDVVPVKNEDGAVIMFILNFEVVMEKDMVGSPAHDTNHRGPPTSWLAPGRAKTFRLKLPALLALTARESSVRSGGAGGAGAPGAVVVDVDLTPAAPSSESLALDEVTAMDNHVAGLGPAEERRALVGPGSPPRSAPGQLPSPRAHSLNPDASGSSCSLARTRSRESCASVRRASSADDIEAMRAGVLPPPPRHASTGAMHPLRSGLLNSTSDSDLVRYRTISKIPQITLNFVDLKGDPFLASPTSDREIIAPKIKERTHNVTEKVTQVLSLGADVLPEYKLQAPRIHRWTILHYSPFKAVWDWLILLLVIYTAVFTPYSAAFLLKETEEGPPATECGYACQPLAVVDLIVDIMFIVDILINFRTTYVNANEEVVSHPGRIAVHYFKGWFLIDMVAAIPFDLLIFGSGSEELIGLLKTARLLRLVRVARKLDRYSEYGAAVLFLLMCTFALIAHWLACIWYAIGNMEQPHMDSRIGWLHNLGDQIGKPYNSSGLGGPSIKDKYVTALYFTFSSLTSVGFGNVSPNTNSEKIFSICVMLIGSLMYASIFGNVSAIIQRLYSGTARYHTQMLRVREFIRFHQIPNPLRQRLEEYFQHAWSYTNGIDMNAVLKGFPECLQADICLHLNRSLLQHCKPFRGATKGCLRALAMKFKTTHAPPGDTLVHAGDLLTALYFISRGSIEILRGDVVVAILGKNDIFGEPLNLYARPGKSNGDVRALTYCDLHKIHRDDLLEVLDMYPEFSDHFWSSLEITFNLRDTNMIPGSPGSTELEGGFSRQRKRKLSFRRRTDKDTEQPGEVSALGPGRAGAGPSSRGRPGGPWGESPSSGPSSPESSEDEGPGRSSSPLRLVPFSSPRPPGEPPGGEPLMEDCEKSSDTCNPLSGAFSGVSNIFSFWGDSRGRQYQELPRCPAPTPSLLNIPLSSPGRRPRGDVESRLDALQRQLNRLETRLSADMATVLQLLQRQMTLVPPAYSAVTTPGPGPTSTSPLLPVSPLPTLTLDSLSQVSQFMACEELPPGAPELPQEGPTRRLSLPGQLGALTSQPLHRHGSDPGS
Method: hERG Channel Inhibition Assay:
The hERG K^+ channels were cloned in humans and stably expressed in a CHO (Chinese hamster ovary) cell line. CHOhERG cells were used for patch-clamp (voltage-clamp, whole-cell) experiments. Cells were stimulated by a voltage pattern to activate hERG channels and conduct IKhERG currents (rapid delayed outward rectifier potassium current of the hERG channel). After the cells were stabilized for a few minutes, the amplitude and kinetics of IKhERG were recorded at a stimulation frequency of 0.1 Hz, (6 bpm). Thereafter, the test compound was added to the preparation at increasing concentrations. For each concentration, an attempt was made to reach a steady-state effect, usually, this was achieved within 3-10 min at which time the next highest concentration was applied. The amplitude and kinetics of IKhERG are recorded in each concentration of the drug which were compared to the control values (taken as 100%). (references: Redfern W S, Carlsson L, Davis A S, Lynch W G, MacKenzie I, Palethorpe S, Siegl P K, Strang I, Sullivan A T, Wallis R, Camm A J, Hammond T G. 2003; Relationships between preclinical cardiac electrophysiology, clinical QT interval prolongation and torsade de pointes for a broad range of drugs: evidence for a provisional safety margin in drug development. Cardiovasc. Res. 58:32-45, Sanguinetti M C, Tristani-Firouzi M. 2006; hERG potassium channels and cardiac arrhythmia. Nature 440:463-469, Webster R, Leishman D, Walker D. 2002; Towards a drug concentration effect relationship for QT prolongation and torsades de pointes. Curr. Opin. Drug Discov. Devel. 5:116-26).

[2] = target: T2, CYP2C9 (Homo sapiens, UniProt P11712); assay: CYP inhibition assay in human liver microsome, CYP2C9; assay type: in vitro ADME; conditions: human, human liver microsomes, probe diclofenac 5 μM, substrate diclofenac 5 μM, first value of 2C9/2D6/3A4
T2 construct: tissue BD-Gentest 452117; host or cells: human liver microsomes
T2 sequence (P11712 whole entry): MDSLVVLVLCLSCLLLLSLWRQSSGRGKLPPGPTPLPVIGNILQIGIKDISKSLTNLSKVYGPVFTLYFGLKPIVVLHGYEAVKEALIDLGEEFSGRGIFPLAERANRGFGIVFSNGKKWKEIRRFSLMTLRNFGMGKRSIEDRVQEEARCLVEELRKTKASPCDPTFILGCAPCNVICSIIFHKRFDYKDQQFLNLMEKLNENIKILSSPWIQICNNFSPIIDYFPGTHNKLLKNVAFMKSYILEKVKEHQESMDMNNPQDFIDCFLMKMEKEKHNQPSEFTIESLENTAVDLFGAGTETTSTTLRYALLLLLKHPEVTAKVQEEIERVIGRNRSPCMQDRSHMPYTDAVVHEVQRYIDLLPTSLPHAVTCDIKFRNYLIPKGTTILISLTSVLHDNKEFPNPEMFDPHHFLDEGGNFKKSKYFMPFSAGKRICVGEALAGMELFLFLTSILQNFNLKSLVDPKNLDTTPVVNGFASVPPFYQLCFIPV
Method: (§1) This is a high throughput screening assay used for assessment of reversible inhibition of CYP2C9, CYP2D6, and CYP3A4 activity of test compounds in human liver microsome (HLM) in early discovery stage.
(§2) 10 mM DMSO stock solutions of test compounds were diluted in DMSO to generate 2 mM intermediate stock solution. 250 nL, of intermediate stock solution were transferred in duplicate into 3 separate 384 well microtitre plates (assay-ready plates). A mixture of HLM and each substrate was made up. 45 μL of HLM substrate mix was then transferred to each well of an assay ready plate and mixed. The negative (solvent) and positive controls (standard inhibitor for each CYP) were included in each assay ready plate. The assay ready plate was warmed to 37° C. in an incubator over 10 minutes. 5 μL pre-warmed NADPH regenerating system was added to each incubation well to start the reaction. Final incubation volume was 50 μL. The assay plate then was placed back in the 37° C. incubator. After incubation (10 minutes for CYP2D6) for 5 minutes, incubates were quenched by addition of 50 μL 100% acetonitrile containing internal standards (400 ng/mL 13C6-4′-OH-Diclofenac, 20 ng/mL D3-Dextrorphan and 20 ng/mL D4-1′OH-Midazolam). The supernatants were collected for RapidFire/MS/MS analysis.
(§3) RapidFire online solid phase extraction/sample injection system (Agilent) coupled with API4000 triple quadrupole mass spectrometer (AB Sciex) were used for sample analysis. The mobile phase composed of acetonitrile and water supplemented with 0.1% formic acid. A C4 solid phase extraction cartridge is used for sample separation. MS detection is achieved in positive ion MRM mode.
(§4) Peak areas for substrate, metabolite and internal standard are determined using the RapidFire integrator software (version 3.6.12009.12296). Peak area ratios (PAR) of metabolite and internal standard (stable-labelled metabolite) are then calculated. The measurement window for each experiment is then defined:
(§5) PAR (0% activity)=average PAR for all incubations containing concentrated inhibitor; Par (100% activity)=average PAR for all incubations containing no inhibitor (DMSO controls); % Activity (test inhibitor)=[PAR (test inhibitor)−PAR (0% activity)]/[PAR (100% activity)−PAR (0% activity)]; % Inhibition (test inhibitor)=100-% Activity (test inhibitor).

[3] = target: T3, CYP3A4 (Homo sapiens, UniProt P08684); assay: CYP inhibition assay in human liver microsome, CYP3A4; assay type: in vitro ADME; conditions: human, human liver microsomes, probe midazolam 5 μM, substrate midazolam 5 μM, third value of 2C9/2D6/3A4
T3 construct: tissue BD-Gentest 452117; host or cells: human liver microsomes
T3 sequence (P08684 whole entry): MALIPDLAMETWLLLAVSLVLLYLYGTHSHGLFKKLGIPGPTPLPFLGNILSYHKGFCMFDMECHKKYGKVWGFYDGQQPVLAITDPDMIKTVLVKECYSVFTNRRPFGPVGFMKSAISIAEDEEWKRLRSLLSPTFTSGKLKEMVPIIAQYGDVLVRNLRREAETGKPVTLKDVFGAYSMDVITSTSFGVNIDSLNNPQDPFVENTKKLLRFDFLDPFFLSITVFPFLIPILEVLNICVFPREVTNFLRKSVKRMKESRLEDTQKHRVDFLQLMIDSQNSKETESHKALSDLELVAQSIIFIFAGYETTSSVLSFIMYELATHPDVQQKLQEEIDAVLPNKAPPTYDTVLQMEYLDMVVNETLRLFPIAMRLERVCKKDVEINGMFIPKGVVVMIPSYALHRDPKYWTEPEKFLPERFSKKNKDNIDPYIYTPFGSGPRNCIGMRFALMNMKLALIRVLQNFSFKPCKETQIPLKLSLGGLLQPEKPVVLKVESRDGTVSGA
Method: as §1, §2, §3, §4, §5

[4] = target: T4, hTLR9 (Homo sapiens, UniProt Q9NR96); set-up: host or cells: HEK; conditions: data disclosed in US20150105370; read-out: HEK/hTLR9 IC50; cited from earlier work
T4 sequence (Q9NR96 26-1032): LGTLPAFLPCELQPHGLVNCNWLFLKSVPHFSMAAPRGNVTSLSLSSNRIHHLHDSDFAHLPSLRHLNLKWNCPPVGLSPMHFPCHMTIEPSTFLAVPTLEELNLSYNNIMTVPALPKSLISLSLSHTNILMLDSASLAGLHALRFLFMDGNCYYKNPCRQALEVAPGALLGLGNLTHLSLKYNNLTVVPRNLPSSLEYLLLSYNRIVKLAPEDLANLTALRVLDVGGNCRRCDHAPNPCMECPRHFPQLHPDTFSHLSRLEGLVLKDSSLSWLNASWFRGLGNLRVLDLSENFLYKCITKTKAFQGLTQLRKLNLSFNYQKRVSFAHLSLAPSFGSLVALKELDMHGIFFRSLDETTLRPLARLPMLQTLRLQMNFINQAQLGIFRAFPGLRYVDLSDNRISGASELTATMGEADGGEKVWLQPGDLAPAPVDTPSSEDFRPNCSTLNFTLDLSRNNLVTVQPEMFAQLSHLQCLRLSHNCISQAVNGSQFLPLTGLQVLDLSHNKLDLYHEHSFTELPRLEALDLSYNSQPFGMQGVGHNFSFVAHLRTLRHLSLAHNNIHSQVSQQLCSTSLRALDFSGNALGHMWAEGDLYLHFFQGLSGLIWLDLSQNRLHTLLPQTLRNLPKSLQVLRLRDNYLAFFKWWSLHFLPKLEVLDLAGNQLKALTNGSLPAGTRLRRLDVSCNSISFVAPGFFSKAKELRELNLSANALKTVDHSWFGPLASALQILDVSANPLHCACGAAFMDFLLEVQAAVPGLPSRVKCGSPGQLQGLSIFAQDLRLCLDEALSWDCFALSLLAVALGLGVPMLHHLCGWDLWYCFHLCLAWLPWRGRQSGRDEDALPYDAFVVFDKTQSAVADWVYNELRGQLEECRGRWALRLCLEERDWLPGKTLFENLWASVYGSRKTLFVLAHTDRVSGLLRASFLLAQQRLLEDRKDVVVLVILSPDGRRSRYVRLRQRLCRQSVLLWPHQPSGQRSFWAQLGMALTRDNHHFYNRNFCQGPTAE

Row | Structure (SMILES) | safety window (hERG IC20/TLR7/8/9 IC50) compared to the compounds of this invention [1] | hERG IC20/TLR7 IC50 [1] | hERG IC20/TLR9 IC50 [1] | inhibition at 5 min, 10 µM [2] [%] | inhibition at 5 min, 10 µM [3] [%] | IC50 [4] [nM]
1 | C[C@@H]1CN(c2ccc(C#N)c3ncccc23)C[C@H](CN2CCN(c3ccncc3)CC2)O1 [ER-888286, reference compound] | much narrower safety window | 0.3 | 0.2 | 29.5 | 5.5 | > 2000
2 | C[C@@H]1CN(c2ccc(C#N)c3ncccc23)C[C@H](CN2CCN(c3ccccc3)CC2)O1 [ER-887258, reference compound] | much narrower safety window | 8.1 | 0.3 |  |  | > 2000
